Source: publication PMC11279797, “Shifting Mycobacterial Serine Hydrolase Activity Visualized Using Multi-Layer In-Gel Activity Assays” (Molecules, 2024)

Biological target: T1, LipN (Mycolicibacterium smegmatis, UniProt I7G6G5)
T1 sequence (I7G6G5 1-378): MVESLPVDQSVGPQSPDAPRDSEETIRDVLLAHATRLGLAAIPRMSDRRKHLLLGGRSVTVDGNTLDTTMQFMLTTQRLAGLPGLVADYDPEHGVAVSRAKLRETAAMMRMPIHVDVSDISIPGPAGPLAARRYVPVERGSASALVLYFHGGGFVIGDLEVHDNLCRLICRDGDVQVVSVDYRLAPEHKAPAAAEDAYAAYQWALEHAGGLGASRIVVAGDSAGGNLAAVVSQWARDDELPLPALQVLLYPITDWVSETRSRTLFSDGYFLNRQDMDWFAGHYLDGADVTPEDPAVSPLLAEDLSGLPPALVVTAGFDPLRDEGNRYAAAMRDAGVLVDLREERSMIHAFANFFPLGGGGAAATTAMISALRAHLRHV
Assay: fluorogenic ester hydrolysis, initial rates, Michaelis-Menten fit
Format: biochemical
Conditions: PBS pH 7.4, 0.1 mg/mL acetylated BSA, 25 C

## O=C(OCOc1ccc2c(c1)Oc1cc(OCOC(=O)c3cnco3)ccc1C21OC(=O)c2ccccc21)c1cnco1 [compound 7, substrate 7]
  KM: Msmeg LipN has high enzymatic activity against the oxazole ester substrate
